The record followed here is PMC8703450, “New Heterocyclic Combretastatin A-4 Analogs: Synthesis and Biological Activity of Styryl-2(3H)-benzothiazolones” (Pharmaceuticals, 2021).

Series [1] relates to EA.hy926 cells. Kind of series: MTT cytotoxicity / growth inhibition assay, EA.hy926. The series is classed as cell-based, human. Here is the method:
The endothelial cell line (EA.hy926) was kindly provided by Dr. C-J.S. Edgell—University of North Carolina, USA. Cells were cultured in 4.5 g/L D-Glucose DMEM/F12 medium, supplemented with 10% fetal bovine serum (FBS, Cytogen GmBH, Greven, Germany) and 100 U/mL penicillin and streptomycin (Lonza BioWhitaker, Verviers, Belgium). The other cell lines used are described in Table S3.1. Cell cultures were maintained in an incubator at 37 °C with 95% humidity and 5% CO2 and were routinely found free of mycoplasma.
All tested compounds were dissolved in DMSO at 25 mM initial concentration and diluted with medium to obtain the working concentrations (0.01 nM–250 µM). Serial drug dilutions were prepared in medium immediately before each experiment. The DMSO working concentration in the medium was […]. For the MTT assay, cells were seeded into 96-well microtitre plates at a density of 1 × 10^4 in 100 µL complete medium per well. They were further incubated for 24 h, followed by treatment with CA-4 analogs up to 72 h. Cell viability was determined using the MTT assay. Ten µL of MTT solution (5 mg/mL) was added to each well and further incubated for 3 h at 37 °C. To dissolve the formazan product, 100 µL/well of 99.5% isopropanol was added. Cell viability was determined by measuring absorbance at 550/630 nm using a DTX880 plate reader (Beckman Coulter, USA). Results, expressed as concentrations that inhibit 20% (IC20), 50% (IC50), and 80% (IC80) of cell growth, were calculated using GraphPad Prism 8.0.1.

In series [2] the test system is EA.hy926 cells. The experiment in a line: In vitro cell migration (wound-healing) assay. Type of series: cell-based, human. The settings on record: EA.hy926, 50 nM, 24 h. Here is the method: A total of 3 × 10^5 EA.hy926 cells were seeded in a 12-well plate and grown close to the confluence. The cell monolayer was gently scraped with a P200 pipette tip, creating a wound area around 1-mm wide. Cells were washed twice with fresh medium and treated with test compounds diluted in growth media to the corresponding sub-toxic concentrations. Images were acquired at 0 and 24 h following treatment. After incubation for 24 h, the scratch wound width was measured and recorded, and then compared with the initial scratch wound width at 0 h. Using the ImageJ image processing program (ImageJ150-WIN-Java8), the size of the denuded area in pixels was determined at each time point from the digital images.

In series [3] the test system is EA.hy926 cells. The experiment in a line: Clonogenic survival assay. The settings on record: 72 h treatment + 6 days recovery; for decrease in colony number: EA.hy926, 250 nM; for reduction in colony formation: EA.hy926, 2.5, 10 and 25 µM. Type of series: cell-based, human. As for the experimental part:
EA.hy926 cells were seeded at 300 cells/well on a 6-well plate and incubated for 24 h. The cells were treated with different concentrations of test compounds for 72 h. After six additional days of growth in a fresh medium to form visible colonies, cells were washed with phosphate-buffered saline (PBS, pH 7.4) and stained with crystal violet (0.5%, w/v) in 6% glutaraldehyde. After 30 min of incubation, the plates were washed with tap water, dried, photographed, and analyzed using ImageJ [79]. Raw data were normalized to the corresponding DMSO control for each independent experiment. After normalization, statistically significant differences for colony-forming efficiency (CFE) values versus […] were calculated.

In the next series the test system is α,β-tubulin. Kind of series: In vitro quantification of polymeric vs. soluble tubulin fractions in EA.hy926 cells. Type of series: cell-based, human. The settings on record: EA.hy926, 1 µM, 6 h; DMSO control 2.33 ± 0.14. Here is the method:
To assess the early effects on the microtubule cytoskeleton in vitro, EA.hy926 cells were cultured for 24 h in 6-cm dishes (3 × 10^5 cells). They were exposed to […] (control), 1 μM CA-4, paclitaxel, or increasing concentrations of 26Z (50, 100, 250, 2500, 10,000 nM) for 6 h. Cells were washed with PBS and lysed directly in the dishes with hypotonic lysis buffer (20 mM Tris-HCl, 1 mM MgCl2, 2 mM EGTA, 0.5% Triton X-100, glycerol 10%, pH 6.8), supplemented with protease inhibitors (2 μg/mL leupeptin, 2 μg/mL pepstatin, 0.4 mM Na vanadate, 0.5 mM PMSF, 1 mM DTT), for 3 min at 30 °C. The soluble fraction was immediately collected, mixed with 5× sample buffer, and boiled at 95 °C for 5 min. The polymerized fraction was collected directly from the culture dish following 10 min of incubation at room temperature with 1× sample buffer.
For the concentration-dependent assay, the cells were harvested by scraping and centrifuged at 1000 g for 5 min, and then lysed with the hypotonic cell lysis buffer for 10 min at room temperature. Tubulin fractions were obtained by centrifugation at 12,000 × g for 10 min.
Equal volumes of the samples were subjected to 10% SDS-PAGE followed by western blotting. Detection of β-tubulin content was accomplished with an anti-β-tubulin mouse monoclonal antibody (sc-101527, Santa Cruz Biotechnology).

In series [4] the test system is EA.hy926 cells. Kind of series: Matrigel tube disruption assay. The settings on record: EA.hy926 on Matrigel, IC50 concentration, 24 h of treatment, compared with time 0. The series is classed as cell-based, human. As for the experimental part: The tube formation assay was performed in 96-well plates coated with 40 µL BD Matrigel™ (basement membrane matrix), following the manufacturer’s instruction (BD Biosciences). A total of 2 × 10^4 EA.hy926 cells was re-suspended in growth medium and added to each well in a final volume of 100 µL. Tube formation was visualized directly using a light microscope. Images were captured using a phase-contrast microscope and quantitation was performed using the WimTube application of the Wimasis online image analysis platform (https://www.wimasis.com/en/products/13/WimTube; accessed on 1 June 2021).

Series [5] deals with rhodamine-labeled α,β-tubulin. Kind of series: Ex vivo rhodamine-tubulin polymerization (fluorescence microscopy). The settings on record: 20 μM, 37 °C, 45 min.
Protocol: TAMRA-Tubulin (TL590M, Cytoskeleton) diluted in GTB buffer (PEM, 10% glycerol, 1 mM GTP) was mixed with unlabeled α,β-tubulin (T240, Cytoskeleton) at a ratio of 1:3 (v/v) to a concentration of 4.0 mg/mL. […] Samples were then centrifuged for 20 min at 30,000× g. The pellets were diluted in 6 µL PEM buffer, containing 1 mM GTP and 0.5% glutaraldehyde, mixed with anti-fade mounting media (P36934, Invitrogen, Eugene, USA), and examined under a confocal LSM 980 Airyscan microscope (Carl Zeiss AG, Oberkochen, Germany).
Setting [6] is: Homo sapiens, EA.hy 926, 72 h of treatment.

With `COc1ccc(/C=C\c2cccc3sc(=O)n(C)c23)cc1` [Compound 15Z, (E/Z)-4-(4-Methoxystyryl)-3-Methyl-2(3H)-Benzothiazolone], in the series on EA.hy926 cells [1] (72 h of treatment), the IC50 was found to be 22 ± 4.57 µM.
As for `COc1ccc(/C=C\c2cccc3sc(=O)n(C)c23)cc1OC` [Compound 16Z, (Z)-4-(3,4-Dimethoxystyryl)-3-methyl-2(3H)-benzothiazolone], the midpoint of inhibition in the series with EA.hy926 cells [1] (setting [6]), the IC50, lay at 25.8 ± 3.11 µM.
`COc1cc(/C=C\c2cccc3sc(=O)n(C)c23)cc(OC)c1` [Compound 17Z, (Z)-4-(3,5-Dimethoxystyryl)-3-methyl-2(3H)-benzothiazolone] gave an IC50 in the series with EA.hy926 cells [1] (setting [6]) of 19.5 ± 2.71 µM.
On the same count and under the same terms, next, `COc1cc(/C=C\c2cccc3sc(=O)n(C)c23)cc(OC)c1OC` [Compound 18Z, (Z)-3-Methyl-4-(3,4,5-trimethoxystyryl)-2(3H)-benzothiazolone]: 15.6 ± 1.16 µM.
As to `COc1ccc(/C=C\c2ccc3sc(=O)n(C)c3c2)cc1` [Compound 19Z, (Z)-5-(4-Methoxystyryl)-3-methyl-2(3H)-benzothiazolone], the 50% inhibitory concentration (IC50) with EA.hy926 cells [1] (setting [6]) amounted to 12 ± 2.49 µM.
Still for that read-out and setting: next, `COc1ccc(/C=C\c2ccc3sc(=O)n(C)c3c2)cc1OC` [Compound 20Z, (Z)-5-(3,4-Dimethoxystyryl)-3-methyl-2(3H)-benzothiazolone]: 14.6 ± 1.75 µM; `COc1cc(/C=C\c2ccc3sc(=O)n(C)c3c2)cc(OC)c1` [Compound 21Z, (Z)-5-(3,5-Dimethoxystyryl)-3-methyl-2(3H)-benzothiazolone]: 10.8 ± 0.62 µM; `COc1cc(/C=C\c2ccc3sc(=O)n(C)c3c2)cc(OC)c1OC` [Compound 22Z, (Z)-3-Methyl-5-(3,4,5-trimethoxystyryl)-2(3H)-benzothiazolone]: 9.43 ± 0.92 µM.
As for `COc1ccc(/C=C\c2ccc3c(c2)sc(=O)n3C)cc1` [Compound 23Z, (Z)-6-(4-Methoxystyryl)-3-methyl-2(3H)-benzothiazolone], in the series with EA.hy926 cells [1] (setting [6]), it took 19.8 ± 3.45 µM to reach half-maximal inhibition (IC50).
Still for that read-out and setting: next, `COc1ccc(/C=C\c2ccc3c(c2)sc(=O)n3C)cc1OC` [Compound 24Z, (Z)-6-(3,4-Dimethoxystyryl)-3-methyl-2(3H)-benzothiazolone]: 9.28 ± 1.13 µM.
`COc1cc(/C=C\c2ccc3c(c2)sc(=O)n3C)cc(OC)c1` [Compound 25Z, (Z)-6-(3,5-Dimethoxystyryl)-3-methyl-2(3H)-benzothiazolone]: the “remaining mean wound opened area” value with EA.hy926 cells [2] is listed as 22.4%. Moreover, half-maximal inhibition in the series with EA.hy926 cells [1] (setting [6]) (IC50) was put at 1.88 ± 0.18 µM. Moreover, in the series with EA.hy926 cells [3], the “decrease in colony number” value came out at 55% and the “reduction in colony formation” value was “about 100%”.
On to `COc1cc(/C=C/c2ccc3c(c2)sc(=O)n3C)cc(OC)c1OC` [Compound 26E, (E/Z)-3-Methyl-6-(3,4,5-Trimethoxystyryl)-2(3H)-Benzothiazolone], for which the 50% inhibitory concentration (IC50) with EA.hy926 cells [1] (72 h of treatment) stood at 38.2 ± 5.35 µM.
The compound `COc1cc(/C=C\c2cccc3c2sc(=O)n3C)cc(OC)c1OC` [Compound 27Z, (E/Z)-3-Methyl-7-(3,4,5-Trimethoxystyryl)-2(3H)-Benzothiazolone] yielded a melting point of 155 to 156 °C. In addition, in the series with α,β-tubulin, the “soluble vs. polymerized tubulin ratio” value worked out at 1.82 ± 0.36. In addition, the “remaining mean wound opened area” value in the series with EA.hy926 cells [2] came out at 3%. The compound further came in with an IC50 in the series with EA.hy926 cells [1] (setting [6]) of 0.3 ± 0.05 µM. In addition, in the series on EA.hy926 cells [4], the “reduction in cumulative tube length” value is recorded as ~ 70%. Moreover, in the series on EA.hy926 cells [3], the “decrease in colony number” value is recorded as 75% and the “reduction in colony formation” value was “about 100%”.
Regarding `CC(=O)O[C@H]1C(=O)[C@@]2(C)[C@H]([C@H](OC(=O)c3ccccc3)[C@]3(O)C[C@H](OC(=O)[C@H](O)[C@@H](NC(=O)c4ccccc4)c4ccccc4)C(C)=C1C3(C)C)[C@]1(OC(C)=O)CO[C@@H]1C[C@@H]2O` [paclitaxel, reference compound], the “soluble vs. polymerized tubulin ratio” value in the series on α,β-tubulin stood at 0.51 ± 0.19. Moreover, the “fluorescent microtubule fiber formation” value in series [5] is “promoted the formation of microtubule fibers”.
